pEC50: −log10 of the molar value. Entries after “also recorded” stand apart in the source; their conditions may differ.
Key:
[1] = test system: HEK293T Tau RD P301S FRET biosensor cells; experiment: D+R functional assay: tau seed transfer from P2-seeded donor cells to DiD-labeled recipient cells; format: cell-based
Procedure: The compounds disclosed herein were further evaluated in the functional assays (“D+R approach”). The assays were based on the use of two cell populations—donor cells (D) and recipient cells (R). Recipients express a specific signal upon accumulation of protein aggregates (for example, FRET signal). The D+R approach can be divided into four steps (FIG. 4A).
In step 1, donor and recipient cells were plated in separation and protein aggregation is induced in the donor cells by using tissue-derived or synthetic proteopathic seeds (“seeding”) or by chemical and/or genetic methods. In step 2, either donor cells or recipient cells were labeled with a lipophilic dye (or by other cell labeling technology) in order to be able to distinguish between donor and recipients cells after trypsinization and re-plating of the donor and recipient cells together in step 3 (R+D). Alternatively, donor and recipient cells were physically divided by a permeable support (for example, Transwell). In any scenario, the cells were connected through the media and they grow for 24-60 hours with or without addition of pre-selected compounds. Efficiency of proteopathic seed transmission from donor cells to recipient cells can be analyzed using microscopy, flow cytometry, or imaging flow cytometry. […] Treatment of the tau biosensor cells with tau seeds lead to RD aggregation, as a result, CFP and YFP molecules come into close proximity and a FRET signal can be generated in the CFP/YFP pair upon illumination. The far-red fluorescent, lipophilic carbocyanine dye, DiD, was used for labeling recipient cells. This dye allowed for distinguishing between the DiD-negative donor and the DiD positive recipient cells without interference with the CFP/YFP FRET signal. The representative images of DiD-negative FRETpositive donor cell seeded with P2-derived tau seeds), DiD-positive FRET-negative recipient cell (DiD-R), and DiD positive FRET-positive recipient cell, which were growing in the presence of P2-D (DiD-R/R+D) are presented at the FIG. 4B. […]

[2] = test system: HEK293T Tau RD P301S FRET biosensor cells; experiment: EV-mediated tau transfer assay; format: cell-based
Procedure: For EV (extracellular vesicles)-mediated tau transfer assay, donor cells, transduced with AD-brain derived synaptosomal extracts (P2) or synthetic K18 seeds, were cultured for 48 hours in exosome-free medium with or without indicated concentration of tested compounds or DMSO for control, then medium was collected and EVs were purified using Exo-Quick-TC exosome purification kit (SBI, EXOTC10A-1) according to the manufacturing instructions. Naive recipient cells were plated at density 30,000 cells per well (96-well plates), grown for 12 hour in regular medium and then medium was exchanged to exosome-depleted medium, contained exosomes purified from donor cells (each well of recipients received amount of exosomes purified from one well of donor cells). Recipient cells were cultured in the presence of donor cell exosomes for 60 hrs. EV-mediated transfer assay scheme is presented at the FIG. 5A (right).
HEK293T Tau RD P301S FRET biosensor cells were growing in the Dulbecco's Modified Eagle's medium (DMEM) with higher glucose, 10% FBS, and 1% Penicillin-streptomycin at 37° C./5% CO2. Cells were plated in 10-sm dishes (3 million cells per dish in the regular medium) and grown for 12 hrs. Cells assigned to be donors were transduced with pulled synaptosomal (P2) extracts from AD cases using lipofectamine 2000, according to the published literature with minor modifications. We used 35 μg of pulled AD or control (NL) material per one 10-sm dish (TableS1). Defrosted P2 extracts were sonicated in water bath sonicator for 10 minutes, and diluted with Opti-MEM serum reduced medium to the final volume 200 μL per 10-sm dish. In a separate tube lipofectamine 2000 were combined with Opti-MEM medium, based on 25 μl of lipofectamine and 175 μL OptiMEM medium per each 10-sm dish, and incubated for 10 minutes at room temperature (RT). Each P2 or NL extract mix (200 μl) and prepared lipofectamine 2000 mix (200 μl) were combined and incubated for 20 min at RT. Each 10-sm dish with cell received 400 μl of the final liposomes in the total volume of medium 5 ml per dish. Cultures treated with equal amount of empty liposomes were used as an additional control group. Cells were incubated with liposomes for 20 hrs.
For “D+R” assay recipient cells were labeled with 1,1′-Dioctadecyl-3,3,3′,3′-tetramethylindodicarbocyanine (DiD) according to manufacturer's protocol (ThermoFisher V22887) on day 2. On day 3, donor cells were trypsinized (0.05% Trypsin/EDTA), washed with fresh exosome-free medium contained 10% of exosome-depleted FBS (ThermoFisher, A2720803). DiD-labeled recipient cells were also trypsinized and washed in exosome-free medium. […] FRET signal was detected using LSRII flow cytometer (BD biosciences). […]

O=c1[nH]c(=S)[nH]c(-c2ccccc2)c1Cc1c(O)ccc2ccccc12 [cambinol]
tau seed transmission from donor cells to recipient cells ([1]; D+R model, flow cytometry (FIG. 4C)): restrained tau seed transmission from the donor cells to the recipient cells in a dose-dependent manner | pEC50 ([1]; Homo sapiens, HEK-293T, 48 h, 48-hour treatment, P2-seeded donor cells, FRET-positive aggregates in recipient cells, read-out: EC50, reduction of tau transfer from donor to recipient cells (D+R assay)): ~4.85 | EV-mediated transfer of tau to recipient cells ([2]; P2-seeded donor cells treated at 50 μM, 48 hours): decrease; also recorded: more effective than the nSMase2 inhibitor GW4869 | reduction of EV-mediated transfer of tau seeds to naive recipient cells ([2]; inhibitor treatment of donor cells): 8 times

Reference: patent publication US20200270216A1, “COMPOSITIONS AND METHODS FOR INHIBITING N-SMASE2” (The Regents of the University of California, priority 2017, published 2020)
